Article PMC4383003, “Transfer hydrogenation catalysis in cells as a new approach to anticancer drug design” (Nature Communications, 2015)

How the values were obtained:
calf thymus DNA = experiment: Interaction with calf thymus DNA (ethanol precipitation, ICP-MS of Ru); assay type: binding
Experimental: Interaction with calf thymus DNA
Complex 2 was chosen as representative of the series. A stock solution of complex 2 (0.7 mM in 5 % acetonitrile/water) was prepared and aliquots of 66 μL were added to a solution of CT-DNA (final ratio 1:3 complex: base pairs-DNA) in water, 2 mM cacodylate buffer and 2 mM NaCl. The reaction mixture was incubated at 310 K, and aliquots of 300 μL were taken at different intervals during a period of 27 h. The DNA was then precipitated by addition of ethanol (700 μL, final concentration 70% v/v). Ru complexes which are strongly bound to CT-DNA will precipitate together with the DNA upon addition of ethanol, and, therefore the ruthenium concentration in the supernatant should decrease. However, no changes in the Ru concentration were detected by ICP-MS showing that the interaction between the complex 2 and DNA is weak (t = 0 h / 64.2 ± 0.7 µM, t = 24 h/ 65.1 ± 0 .3 µM free Ru). In contrast complex 8

[1] = test system: A2780 ovarian cancer cells; experiment: IC50 of complex 2 on co-administration with formate; assay type: cell-based, human; details: A2780, formate 0 mM
Experimental: The antiproliferative activity towards A2780 ovarian cancer cells of complex 2 when co-administered with 2 mM sodium formate was determined. These experiments were performed as described above, using a fixed concentration of formate and variable concentrations of the Ru complex. The SRB assay was used to determine cell viability. IC50 values were determined as duplicates of triplicates in two independent sets of experiments and their s.d. were calculated.
Supplementary Table 8: Antiproliferative activity of complex 2 in A2780 ovarian cancer cells when co-administered with different concentrations of sodium formate (0, 0.5, 1 and 2 mM) and amount of Ru accumulated by the cells. All the experiments were performed as duplicates of triplicates in independent experiments and the error bars were calculated as the standard deviation from the mean.
Formate concentration (mM)

A2780 cells = experiment: Cellular membrane integrity (CytoPainter flow cytometry); assay type: cell-based, human; details: A2780, complex 2 alone or with 2 mM sodium formate, 24 h
Experimental: Flow cytometry analysis of cellular membrane integrity of A2780 cells caused by exposure to complex 2 and sodium formate were carried out using the CytoPainter assay (Abcam) according to the manufacturer’s instructions. […] Cells were harvested using trypsin and stained in the dark using CytoPainter Red (Ex/Em 583/603 nm), which reacts with cell surface amines in compromised membranes. After staining, cell pellets were analysed in a Becton Dickinson FACScan Flow Cytometer.

[2] = test system: A2780 ovarian cancer cells; experiment: Ruthenium accumulation in cancer cells (ICP-MS); assay type: cell-based, human
Experimental: Briefly, 1.5 × 10^6 cells per well were seeded on a six-well plate. […] After this time, cells were washed, treated with trypsin-EDTA, counted and cell pellets were collected. Each pellet was digested overnight in concentrated nitric acid (73%) at 353 K; the resulting solutions were diluted using double-distilled water to give a final concentration of 5% HNO3 and the amount of Ru taken up by the cells was determined by ICP–MS. […]
Supplementary Table 3: Antiproliferative activity of complexes 1-8 in A2780 ovarian cancer cells and their cellular accumulation (expressed as ng Ru per million cells).
The latter experiments were carried out using equipotent concentrations of the […]
experiments were performed as duplicates of triplicates in independent experiments and the error bars were calculated as the standard deviation from the mean. […]

CT-DNA = experiment: Thermal stability (melting temperature) of CT-DNA by UV-Vis; assay type: binding, calf; details: for Tm: CT-DNA, 1:3 complex:base pairs, 2 mM cacodylate pH 7.4, 2 h 310 K; for ΔTm: versus free DNA
Experimental: Supplementary Table 6: Melting temperature (Tm) of CT-DNA in the presence of 8 or complex 2 (ratio 1:3, complex: base pairs-DNA). The reactions were carried out in cacodylate buffer (2 mM, pH 7.4), and samples incubated for 2 h at 310 K. […]
a variation in melting temperature between free DNA and DNA in the presence of the corresponding complex. * […] from free DNA using a T-test analysis. ** p < 0.01 from free DNA using a T-test analysis […]
Thermal stability of CT-DNA
The melting temperature of CT-DNA in the presence and absence of complex 2 [(p-cym)Ru(TsEn)Cl] was determined by UV-Vis spectroscopy (Supplementary Table 6). Higher melting temperatures indicate increased stabilization of the DNA, which is the effect produced by DNA-intercalators and often by direct metal coordination to […]
the nucleobases.11 Destabilization of DNA can result in a decrease of the melting […]
In the presence of complex 8, the melting temperature of CT-DNA increased In agreement with the literature, 12 by 14 K, in 2 mM NaCl, 2 mM cacodylate buffer.
This increase is due to Ru binding to DNA as well as intercalation. 12 However, upon increasing the chloride concentration by ca. 10x (20 mM NaCl) the melting temperature of CT-DNA in the presence of complex 8, increased only by 7 K. This effect has previously been reported and it is attributed to the partial inhibition of hydrolysis, and, therefore, inhibition of coordination to DNA. 12, 13
Experiments performed in the presence of complex 2, in 2 mM cacodylate buffer and […]
NaCl, no decrease of the melting temperature was observed. […]

[3] = test system: A2780 ovarian cancer cells; experiment: Ruthenium distribution in cancer cells (cell fractionation, ICP-MS); assay type: cell-based, human
Experimental: Cell pellets were obtained as described above, and were fractionated using the Fraction PREP kit from BioVision according to the supplier’s instructions. Each sample was digested overnight in concentrated nitric acid (73%) and the amount of Ru taken up by the cells was determined by ICP–MS. These experiments were all carried out in triplicate and the s.d. were calculated.
Supplementary Table 9: Cellular distribution of complex 2 (as % Ru) in A2780 ovarian cancer cells when co-administered with different concentrations of sodium formate (0 and 2 mM). All the experiments were performed as duplicates of triplicates in independent experiments and the error bars were calculated as the standard deviation from the mean.
Formate Cytosol Membrane Cytoskeleton Nuclei

[4] = A2780, complex 2 4.5 μM, presence and absence of formate (2 mM)

**Q.** Cc1ccc(C(C)C)cc1.Cc1ccc(S(=O)(=O)[N-]CCN)cc1.[Cl-].[Ru+2] [Complex 2, [(p-cym)Ru(TsEn)Cl]] was tested. Which “free Ru in supernatant” value (calf thymus DNA; CT-DNA, 1:3 complex:base pairs, 310 K, t = 0 h) did it give?
**A.** 64.2 ± 0.7 µM

**Q.** What about the “binding to calf thymus DNA” value (calf thymus DNA; ICP-MS of Ru, up to 27 h at 310 K, 1:3 complex:DNA base pairs, 2 mM cacodylate pH 7.4, 2 mM NaCl) of the same molecule?
**A.** weak and no binding

**Q.** And the IC50 [1]?
**A.** 13.6 ± 0.6 µM

**Q.** And the “cellular membrane integrity, FL2 fluorescence of CytoPainter red” value (A2780 cells)?
**A.** low fluorescence

**Q.** What about the “Cell Ru” value ([2]; A2780, 1/3 x IC50, 24 h drug exposure, no recovery time) of the same molecule?
**A.** 0.15 ± 0.04 ng x 106 cells

**Q.** And the Cell accum. ([2]; A2780, 24 h, 1/3 x IC50)?
**A.** 0.15 ng Ru/10^6 cells

**Q.** And the “dependence of cellular accumulation of ruthenium on amount of formate added” value ([2]; A2780, complex 2 4.5 μM)?
**A.** no significant dependence

**Q.** What about the “Cell Ru” value ([2]; A2780, complex 2, formate 0 mM) of the same molecule?
**A.** 0.15 ± 0.03 ng x 106 cells

**Q.** And the “Cell Ru” value ([2]; A2780, complex 2, formate 0.5 mM)?
**A.** 0.145 ± 0.009 ng x 106 cells

**Q.** And the “Cell Ru” value ([2]; A2780, complex 2, formate 1 mM)?
**A.** 0.129 ± 0.005 ng x 106 cells

**Q.** What about the “Cell Ru” value ([2]; A2780, complex 2, formate 2 mM) of the same molecule?
**A.** 0.13 ± 0.02 ng x 106 cells

**Q.** What about the “decrease in the melting temperature of CT-DNA” value (CT-DNA; 2 mM cacodylate buffer and 2 mM NaCl) of the same molecule?
**A.** -269 °C

**Q.** And the Tm (CT-DNA; 2 mM NaCl)?
**A.** 47.2 ± 1.6 °C

**Q.** And the Tm (CT-DNA; 20 mM NaCl)?
**A.** 54.4 ± 0.7 °C

**Q.** What about the ΔTm (CT-DNA; 2 mM NaCl) of the same molecule?
**A.** -2.4

**Q.** What about the ΔTm (CT-DNA; 20 mM NaCl) of the same molecule?
**A.** -4.9

**Q.** What about the “Ru in cytoskeletal fraction” value ([3]; A2780, complex 2 4.5 μM) of the same molecule?
**A.** little Ru

**Q.** What about the “Ru in cytosolic fraction” value [3, 4] of the same molecule?
**A.** 51%

**Q.** What about the “Ru in membrane and organelle fraction” value [3, 4] of the same molecule?
**A.** 38%

**Q.** What about the “Ru in nuclear fraction” value [3, 4] of the same molecule?
**A.** 9%

**Q.** And the “%Ru Cytoskeleton” value ([3]; A2780, formate 0 mM)?
**A.** 1.9 ± 0.5%

**Q.** What about the “%Ru Cytosol” value ([3]; A2780, formate 0 mM) of the same molecule?
**A.** 50.5 ± 2.4%

**Q.** What about the “%Ru Membrane” value ([3]; A2780, formate 0 mM) of the same molecule?
**A.** 41.6 ± 1.4%

**Q.** What about the “%Ru Nuclei” value ([3]; A2780, formate 0 mM) of the same molecule?
**A.** 6.0 ± 2.8%

**Q.** And the “%Ru Cytoskeleton” value ([3]; A2780, formate 2 mM)?
**A.** 1.0 ± 0.8%

**Q.** And the “%Ru Cytosol” value ([3]; A2780, formate 2 mM)?
**A.** 52.0 ± 3.0%

**Q.** What about the “%Ru Membrane” value ([3]; A2780, formate 2 mM) of the same molecule?
**A.** 35.7 ± 7.2%

**Q.** And the “%Ru Nuclei” value ([3]; A2780, formate 2 mM)?
**A.** 11.3 ± 4.5%
